Values of other authors, collected in patent US8835453B2, “Sustained release implant for granisetron” (Development Center for Biotechnology, priority 2008, dated 2014).
Where a name gives a salt, the structure may show the parent alone.

Details: water and normal saline at 20° C.

For `CN1C2CCCC1CC(NC(=O)c1nn(C)c3ccccc13)C2` (stereo not drawn) [Granisetron hydrochloride, endo-N-(9-methyl-9-azabicyclo[3.3.1]non-3-yl)-1-methyl-1H-indazole-3-carboxamide], the solubility is listed as “soluble”.
